Columns and labels:
[1] = tested on: passive cutaneous anaphylaxis (PCA); assay: Antiallergic effects: 48 hour-homologous passive cutaneous anaphylaxis (PCA) test in rats; format: in vivo, rat (Wistar male); conditions: Rattus norvegicus; minimum effective dosage: suppression rate 50% or higher in at least one of three rats; oral, 1 hour before PCA challenge; read-out: Anti-allergic effect (MED)
Procedure: Antiallergic effects of compounds were assessed by passive cutaneous anaphylaxis (PCA) test in rats. Wistar male rats weighing 180 to 220 g were used for collection of antiserum and Wistar male rats weighing 120 to 140 g for PCA test.
(i) Preparation of anti EWA serum in rat
Anti-EWA rat serum was prepared by the method of Stotland and Share [Can. J. Physiol. Pharmacol., 52, 1114, (1974)] as follows. That is, 1 mg of EWA, 20 mg of aluminium hydroxide gel and 0.5 ml of mixed vaccine of pertussis, diphtheria and tetanus were mixed, and the mixture was subcutaneously injected in 4 portions into the foot part of the rats. After 14 days, the blood of sensitized rats was collected from carotid artery. The serum was separated by centrifugation from collected blood, and kept at -80° C. Titer of the 48 hour homologous PCA tests of the serum was 1:32.
(ii) Effects on 48 hour-homologous PCA tests in rats
Groups each consisting of three male rats were used, and 0.05 ml of anti-EWA serum diluted to 8 times with a physiological saline, was sensitized passively by giving intradermal injection at two depilated points on the dorsum. After 47 hours, the test compound or its solvent (saline or CMC solution) was orally administrated, and 1 hour thereafter, PCA reaction was induced by intravenous administration of 1% Evan's blue-saline (0.5 ml/100 g) containing 2 mg of […]. After 30 minutes, animals were sacrificed by bleeding and dorsal skin was stripped to determin the extravasated dye at blue-dyed reaction site, by the method of Katayama et al. [Microbiol. Immunol., 22, 89 (1978)]. The blue-dyed spots were scissored out and placed in a test tube containing 1 ml of 1N sodium hydroxide and incubated at 37° C. for 24 hours. 9 ml of a mixture of 0.6N phosphate:acetone (5:13) was added thereto. After shaking, the mixture was centrifuged at 2500 rpm for 10 minutes. A supernatant was separated, and extravasated dye in the supernatant was quantified by measuring absorbance of the supernatant at 620 nm. Prepared calibration curve was used for the quantification. An average of measurements at the two positions was made a value for one animal, and suppression rate of the one animal was calculated by following equation: [formula]

[2] = tested on: trachea strips of passively sensitized guinea pigs, antigen (EWA) induced contraction; assay: Effects on passive Schultz-Dale reaction (broncho-dilatory effects); format: cell-based, guinea pig (Hartley male); conditions: Cavia porcellus; concentration of 50% relaxation; sensitized guinea pig trachea, antigen EWA 1 μg/ml, cumulative addition, 37° C.
Procedure: (a) Effects on passive Schultz-Dale reaction (broncho-dilatory effects). Guinea pigs were passively sensitized as follows. Hartley male guinea pigs weighing 350 to 500 g were injected intraperitoneally with rabbit anti-egg albumin (EWA) serum prepared by the method of Eda et al. [Folia pharmacol., Japon 66, 237, (1970)]. After 24 hours, the guinea pigs were stunned and exsanguinated, and then trachea was excised. The zig-zag strips of the […] prepared by the method of Emmerson and Mackay [J. Pharm. Pharmacol., 31, 798, (1979)]. The strips were suspended in Krebs-Henseleit solution at 37° C. under aeration of a mixed gas of 95% oxygen and 5% carbon dioxide, and incubated for one hour. Antigen (EWA) was then introduced in the solution (final concentration; 1 μg/ml), and the contraction was measured by isotonictrasducer (TD-112s, made by Nihon Kohden K.K., Japan) and recorded on a recorder (Type 3066, made by Yokogawa-Hokushin Denki, K.K. Japan). After the contraction curves reached plateau, the compounds were successively added in order to get cumulative concentration-relaxation curves.

[3] = tested on: experimental asthma in passively sensitized guinea pigs; assay: Effects on experimental asthma; format: in vivo, guinea pig (Hartley male); conditions: 50 mg/kg orally, one hour before aerosol antigen 1.5% EWA; mean + SEM of 5 or 10 animals; control 254 ± 18
Procedure: (c) Effects on experimental asthma Guinea pigs were passively sensitized as follows. Hartley male guinea pigs weighing 350 to 500 g were intraperitoneally injected with 1 ml of rabbit EWA serum prepared by the method of Eda et al. [Folia pharmacol., Japon, 66, 237 (1970)]. The animals were treated with intraperitoneal injection of diphenhydramine (20 mg/kg) and propranolol (5 mg/kg), 30 minutes before administration of test compounds. 17 hours after the sensitization, the test compounds (50 mg/kg) were orally administrated to sensitized animals. After one hour from the administration of the test compounds, the guinea pigs were placed in plastic observation box and were exposed to an aerosal antigen of 1.5% EWA. The time until the onset of respiratory […] symptom [collapse time (second)] was measured as a result of experimental asthma.

[4] = Acute toxicity; conditions: mouse, in vivo; po, mortality for seven days, male dd-mice
Procedure: The compounds were orally administrated (po: 300 mg/kg) to male dd-mice weighing 20 to 25 g. LD50 was determined by observing the mortality for seven days after the administration.

Structure (SMILES) | minimal effective dose [1] [mg/kg] | IC50 [2] [µM] | Experimental asthma (collapse time) [3] [s] | LD50 at 168 h [4] [mg/kg]
CCCCn1c(=O)c2ncn(C)c2c2ccccc21 [Compound 1, 5-n-Butyl-1-methyl-1H,5H-imidazo[4,5-c]quinolin-4-one] | < 10 | 0.0034 | 517 ± 37 | > 300
Cn1cnc2c(=O)n(Cc3ccco3)c3ccccc3c21 [Compound 3, 5-Furfuryl-1-methyl-1H,5H-imidazo[4,5-c]quinolin-4-one] | > 100 | > 20 |  | > 300
Cn1cnc2c(=O)n(C)c3ccccc3c21 [Compound 4, 1,5-Dimethyl-1H,5H-imidazo[4,5-c]quinolin-4-one] | > 10 | > 20 |  | > 200
CCn1c(=O)c2ncn(C)c2c2ccccc21 [Compound 5, 5-Ethyl-1-methyl-1H,5H-imidazo[4,5-c]quinolin-4-one] | < 10 | > 20 | 519 ± 78 | > 100
CCCn1c(=O)c2ncn(C)c2c2ccccc21 [Compound 6, 1-Methyl-5-n-propyl-1H,5H-imidazo[4,5-c]quinolin-4-one] | < 10 | < 20 | 600 ± 0 | > 200
CCCCn1c(=O)c2ncn(Cc3ccccc3)c2c2ccccc21 [Compound 7, 1-Benzyl-5-n-butyl-1H,5H-imidazo[4,5-c]quinolin-4-one] | > 100 | > 20 |  | > 300
CCCCn1c(=O)c2nc[nH]c2c2ccccc21 [Compound 8, 5-n-Butyl-1H,5H-imidazo[4,5-c]quinolin-4-one] | > 100 | > 20 |  | > 300
Cn1cnc2c(=O)n(CC(=O)O)c3ccccc3c21 [Compound 9, 5-Carboxymethyl-1-methyl-1H,5H-imidazo[4,5-c]quinolin-4-one] | > 100 | > 20 | 532 ± 31 | > 300
CCCCn1c(=O)c2ncn(CC)c2c2ccccc21.Cl [Compound 16W, 5-n-Butyl-1-ethyl-1H,5H-imidazo[4,5-c]quinolin-4-one hydrochloride] | > 100 | 4.1 | 422 ± 43 | > 300
CCCCn1c(=O)c2ncn(CCC)c2c2ccccc21.Cl [Compound 17W, 5-n-Butyl-1-n-propyl-1H,5H-imidazo[4,5-c]quinolin-4-one hydrochloride] | > 100 | 2.4 | 484 ± 31 | > 300
CCCCn1c(=O)c2ncn(C(C)C)c2c2ccccc21.Cl [Compound 18W, 5-n-Butyl-1-isopropyl-1H,5H-imidazo[4,5-c]quinolin-4-one hydrochloride] | > 100 | 1.5 | 425 ± 50 | > 300
CCCCn1cnc2c(=O)n(CCCC)c3ccccc3c21.Cl [Compound 19W, 1,5-Di-n-butyl-1H,5H-imidazo[4,5-c]quinolin-4-one hydrochloride] | > 100 | 6.4 | 503 ± 44 | > 300
CCCCn1c(=O)c2ncn(C)c2c2ccc(Cl)cc21.Cl [Compound 24W, 5-n-Butyl-7-chloro-1-methyl-1H,5H-imidazo[4,5-c]quinolin-4-one hydrochloride] | > 100 | 0.9 |  | > 300
CCCCn1c(=O)c2ncn(C)c2c2cc(C)ccc21 [Compound 26, 5-n-Butyl-1,8-dimethyl-1H,5H-imidazo[4,5-c]quinolin-4-one] | 100 | 9.8 |  | > 300
CCCCn1c(=O)c2ncn(C)c2c2c(C)cccc21.Cl [Compound 27W, 5-n-Butyl-1,9-dimethyl-1H,5H-imidazo[4,5-c]quinolin-4-one hydrochloride] | 100 | > 20 |  | > 300
CCCCn1c(=O)c2nc(S)n(C)c2c2ccccc21 [Compound 31, 5-n-Butyl-1-methyl-2-mercapto-1H,5H-imidazo[4,5-c] quinolin-4-one] | > 100 | 9.6 | 284 ± 48 | > 300
CCCCn1c(=O)c2nnn(C)c2c2ccccc21 [Compound 32, 5-n-Butyl-1-methyl-1H,5H-triazolo[4,5-c]quinolin-4-one] | > 100 | 1.6 |  | > 300
CCCn1c(=O)[nH]c(=O)c2[nH]cnc21 [Enprofylline, reference compound] | ≤ 100 | 10 |  | 
CC(C)C(=O)c1c(C(C)C)nn2ccccc12 [KC 404, reference compound] | > 100 | 0.86 |  | 
Cn1c(=O)c2[nH]cnc2n(C)c1=O [Theophylline, reference compound] |  |  | 414 ± 47 | 

— patent publication US4994468A, “Imidazoquinolone derivatives” (Kyowa Hakko Kogyo Co., Ltd., priority 1989, dated 1991)
